Experimental data reported in patent US20240287533A1, “GLUTEN MODIFICATION” (The Regents of the University of California, priority 2021, published 2024).
Entries after “also recorded” stand apart in the source; their conditions may differ.

Assays:
[1] = test system: human monocytes (THP-1); assay: IL-8 production by THP-1 monocytes (ELISA); type: cell-based; settings: 18 hours; for IL-8 production compared to the dsDNA-gld-1 complex: peptide in the presence of dsDNA; for IL-8 secretion: dsDNA+peptide, compared to media control, dsDNA alone or peptide alone
Procedure: (§1) In order to test the biological impact of gluten peptide fragment/dsDNA complexes, human monocytes (THP-1) and human colorectal adenocarcinoma cells (HT-29) were treated with medium as a control, dsDNA alone, gld-1 alone, or dsDNA+gld-1 for 18 hours, then production and secretion of interleukin-8 (IL-8) were assessed by ELISA.

[2] = test system: Escherichia coli dsDNA; assay: Small Angle X-ray Scattering (SAXS) of peptide-dsDNA complexes; type: binding; settings: peptide incubated with genomic E. coli dsDNA
Procedure: The peaks correspond to a rhombic columnar lattice with inter dsDNA spacing, d=4.0 nm, and tilt angle, γ=104.6°. To facilitate visualization, spectra were manually offset vertically by a multiplicative factor.
Double stranded DNA (dsDNA) is an example of a PAMP that is readily available in the gastrointestinal tract (e.g., from food or the gut microbiome). To assess the ability of gluten derived peptide gld-1 to bind dsDNA, Escherichia coli dsDNA was incubated with gld-1, and the formation of an ordered dsDNA-gld-1 complex was assessed.
Small Angle X-ray Scattering (SAXS) measurements of the complex produced Bragg reflections at q10=1.61 and q11=2.55 nm^−1.
Genomic E. coli dsDNA was incubated with gld-2 and gld-3 to test the formation of an ordered dsDNA-peptide complex.

[3] = test system: wild-type macrophages; assay: Cytokine gene expression (qPCR) in wild-type macrophages; type: cell-based, mouse; settings: dsDNA-peptide complex, 20 hours
Description: (§2) To further validate the role of the dsDNA-gld-1 complex in the innate immune activation of TLR9, TLR9 knock-out (TLR9KO) mouse macrophages were compared to wild-type controls. […] Such increased gene expression was attenuated in TLR9KO macrophages, which lack TLR9 (FIG. 6C).

[4] = test system: HEK293 cells (which do not express TLR9); assay: NF-κB/IL-8 luciferase reporter in HEK293 cells transfected with pcDNA3.1 vector control; type: cell-based, human; settings: 4 hours
Procedure: (§3) After 48 hours of recovery, cells were then treated for 4 hours with medium as a control, dsDNA alone, gld-1 peptide alone, or dsDNA-gld-1 complex, and luciferase activity measured.

[5] = test system: TLR9 knock-out (TLR9KO) mouse macrophages; assay: Cytokine gene expression (qPCR) in TLR9 knockout macrophages; type: cell-based; settings: dsDNA-peptide complex, 20 hours, TLR9KO versus wild-type
Description: as §2

[6] = target: T1, human wild-type TLR9 (Homo sapiens, UniProt Q9NR96); assay: NF-κB/IL-8 luciferase reporter in HEK293 cells transfected with TLR9 plasmid; type: cell-based; settings: 4 hours
T1 construct: expressed in transfected cells
T1 sequence (Q9NR96 26-1032): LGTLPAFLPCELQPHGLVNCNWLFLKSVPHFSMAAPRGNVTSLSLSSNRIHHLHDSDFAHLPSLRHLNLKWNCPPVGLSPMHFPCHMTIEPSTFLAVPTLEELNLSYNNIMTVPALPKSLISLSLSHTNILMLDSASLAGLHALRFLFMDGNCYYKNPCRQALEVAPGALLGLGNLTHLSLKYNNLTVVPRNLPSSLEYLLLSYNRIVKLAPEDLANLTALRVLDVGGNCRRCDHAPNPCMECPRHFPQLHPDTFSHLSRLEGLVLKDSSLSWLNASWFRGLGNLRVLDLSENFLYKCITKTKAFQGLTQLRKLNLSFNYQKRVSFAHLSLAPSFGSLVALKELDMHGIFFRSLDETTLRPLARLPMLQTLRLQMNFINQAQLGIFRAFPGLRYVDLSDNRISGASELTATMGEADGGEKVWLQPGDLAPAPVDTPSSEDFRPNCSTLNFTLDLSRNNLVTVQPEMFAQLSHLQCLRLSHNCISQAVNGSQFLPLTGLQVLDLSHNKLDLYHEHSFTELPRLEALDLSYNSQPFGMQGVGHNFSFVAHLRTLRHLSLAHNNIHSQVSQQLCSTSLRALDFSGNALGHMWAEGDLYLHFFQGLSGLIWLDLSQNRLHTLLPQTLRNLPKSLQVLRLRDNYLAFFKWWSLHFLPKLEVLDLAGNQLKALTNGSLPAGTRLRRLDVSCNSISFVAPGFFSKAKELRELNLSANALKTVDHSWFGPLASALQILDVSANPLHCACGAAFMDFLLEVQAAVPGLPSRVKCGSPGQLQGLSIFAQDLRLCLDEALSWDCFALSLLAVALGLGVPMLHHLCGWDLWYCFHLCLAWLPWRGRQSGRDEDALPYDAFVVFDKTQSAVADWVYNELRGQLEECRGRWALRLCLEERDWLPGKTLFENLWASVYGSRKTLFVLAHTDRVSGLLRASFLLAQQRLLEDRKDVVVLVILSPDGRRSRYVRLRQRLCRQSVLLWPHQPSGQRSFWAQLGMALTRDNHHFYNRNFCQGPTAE
Procedure: TLR9, Toll-like Receptor 9.
as §3

[7] = test system: human colorectal adenocarcinoma cells (HT-29); assay: IL-8 production by HT-29 cells (ELISA); type: cell-based; settings: dsDNA+peptide, 18 hours, compared to dsDNA or peptide alone or media control
Procedure: as §1

LAAQLWQIPEQSRAQAIHNVVH (listed as Triticum aestivum) [gld-1A, variant of gld-1 in which all cysteines were replaced with alanines]
IL-8 production compared to the dsDNA-gld-1 complex [1]: reduced the dsDNA-peptide complex activity

LWQIPEQSQCQAIHNVVHA (listed as Triticum aestivum) [gld-2, single mutation of gld-1 replacing a cationic amino acid with glutamine]
IL-8 production compared to the dsDNA-gld-1 complex [1]: attenuated production of IL-8
formation of an ordered nanocrystalline dsDNA-peptide complex (Bragg peaks) [2]: inability of these two peptides to form an ordered nanocrystalline columnar structure with dsDNA

LWQIPEQSQCQAIHNVVQA (listed as Triticum aestivum) [gld-3, double mutation of gld-1 replacing cationic amino acids with glutamine]
IL-8 production compared to the dsDNA-gld-1 complex [1]: attenuated production of IL-8
formation of an ordered nanocrystalline dsDNA-peptide complex (Bragg peaks) [2]: inability of these two peptides to form an ordered nanocrystalline columnar structure with dsDNA

LWQIPEQSRCQAIHNVVHA (listed as Triticum aestivum) [gld-1]
IL-8 secretion [1]: significant increase in IL-8 secretion
interleukin-6 (IL-6) gene expression [3]: significant increase
keratinocyte-derived chemokine (KC) gene expression [3]: significant increase
NF-κB/IL-8 luciferase reporter signal ([4]; dsDNA-peptide complex): comparable NF-κB/IL-8 luciferase reporter signal to the media control
NF-κB/IL-8 luciferase reporter signal ([4]; peptide alone): comparable NF-κB/IL-8 luciferase reporter signal to the media control
IL-6 gene expression [5]: attenuated
NF-κB/IL-8 activation (luciferase) ([6]; dsDNA-peptide complex, compared to dsDNA alone): significantly higher activation
NF-κB/IL-8 activation (luciferase) ([6]; dsDNA-peptide complex, compared to the media control): significant increase
NF-κB/IL-8 activation (luciferase) ([6]; peptide alone, compared to the media control): did not significantly increase activation
IL-8 secretion [7]: increased secretion of IL-8
formation of an ordered nanocrystalline dsDNA-peptide complex (Bragg peaks) [2]: form strongly immunomodulatory complexes with dsDNA; also recorded: able to organize dsDNA into a nano-crystalline lattice structure; also recorded: able to form a well-structured complex

RAAQQLRDVSAKARSVAVSQVAR (listed as Triticum aestivum) [gld-4A, cysteine-to-alanine mutant of gld-4]
IL-8 production, gld-4A compared to gld-4 ([1]; with dsDNA): No significant difference

RCCQQLRDVSAKCRSVAVSQVAR (listed as Triticum aestivum) [gld-4]
IL-8 secretion [1]: stimulated IL-8 production
IL-8 production compared to the dsDNA-gld-1 complex [1]: smaller than the dsDNA-gld-1 complex
